From patent publication US20200165291A1, “NEUROACTIVE STEROIDS, COMPOSITIONS, AND USES THEREOF” (Sage Therapeutics, Inc., priority 2014, published 2020)
Like-named read-outs stand apart in the source and are kept apart here.

What was measured:
[1] = target: [35S]-TBPS binding, rat brain cortical membranes (GABA receptor complex); assay: [35S]-TBPS binding (steroid inhibition of TBPS binding); conditions: in the presence of 5 μM GABA, read-out: 35S-TBPS Radioligand Displacement
Procedure: [35S]-t-Butylbicyclophosphorothionate (TBPS) binding assays using rat brain cortical membranes in the presence of 5 μM GABA has been described (Gee et al, J. Pharmacol. Exp. Ther. 1987, 241, 346-353; Hawkinson et al, Mol. Pharmacol. 1994, 46, 977-985; Lewin, A. H et al., Mol. Pharmacol. 1989, 35, 189-194).
Briefly, cortices are rapidly removed following decapitation of carbon dioxide-anesthetized Sprague-Dawley rats (200-250 g). The cortices are homogenized in 10 volumes of ice-cold 0.32 M sucrose using a glass/teflon homogenizer and centrifuged at 1500×g for 10 min at 4° C. The resultant supernatants are centrifuged at 10,000×g for 20 min at 4° C. to obtain the P2 pellets. The P2 pellets are resuspended in 200 mM NaCl/50 mM Na-K phosphate pH 7.4 buffer and centrifuged at 10,000×g for 10 min at 4° C. This washing procedure is repeated twice and the pellets are resuspended in 10 volumes of buffer. Aliquots (100 μL) of the membrane suspensions are incubated with 3 nM [^35S]-TBPS and 5 μL aliquots of test drug dissolved in dimethyl sulfoxide (DMSO) (final 0.5%) in the presence of 5 μM GABA. The incubation is brought to a final volume of 1.0 mL with buffer. Nonspecific binding is determined in the presence of 2 μM unlabeled TBPS and ranged from 15 to 25%. Following a 90 min incubation at room temp, the assays are terminated by filtration through glass fiber filters (Schleicher and Schuell No. 32) using a cell harvester (Brandel) and rinsed three times with ice-cold buffer. Filter bound radioactivity is measured by liquid scintillation spectrometry. Non-linear curve fitting of the overall data for each drug averaged for each concentration is done using Prism (GraphPad). […] The concentration of test compound producing 50% inhibition (IC50) of specific binding and the maximal extent of inhibition (Imax) are determined for the individual experiments with the same model used for the overall data and then the means±SEM.s of the individual experiments are calculated.
Various compounds are or can be screened to determine their potential as modulators of [^35S]-TBPS binding in vitro. These assays are or can be performed in accordance with the above discussed procedures.

[2] = target: T1, recombinant α1β2γ2 GABAA receptors (Homo sapiens, UniProt P14867+P47870); assay: Patch clamp electrophysiology, QPatch, LTK cells; format: cell-based; conditions: 10 μM test article, GABA EC20 = 2 μM, read-out: GABA (α1β2γ2) Qpatch in Ltk, % efficacy at 10 μM
T1 construct: expressed in transfected cells
T1 sequence (P14867 28-456): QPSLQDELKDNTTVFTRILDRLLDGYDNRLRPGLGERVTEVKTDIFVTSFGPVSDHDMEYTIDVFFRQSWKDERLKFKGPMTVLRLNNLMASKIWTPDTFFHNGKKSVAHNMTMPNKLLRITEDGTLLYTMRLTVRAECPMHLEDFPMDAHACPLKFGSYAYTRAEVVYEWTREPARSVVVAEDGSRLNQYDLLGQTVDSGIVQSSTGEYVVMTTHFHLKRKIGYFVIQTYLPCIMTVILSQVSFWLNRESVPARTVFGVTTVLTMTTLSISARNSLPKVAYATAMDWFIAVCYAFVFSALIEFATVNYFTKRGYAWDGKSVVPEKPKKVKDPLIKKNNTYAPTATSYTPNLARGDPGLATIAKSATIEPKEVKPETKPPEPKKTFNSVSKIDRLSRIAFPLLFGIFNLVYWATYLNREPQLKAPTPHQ
T1 sequence (P47870 25-512 limits assumed): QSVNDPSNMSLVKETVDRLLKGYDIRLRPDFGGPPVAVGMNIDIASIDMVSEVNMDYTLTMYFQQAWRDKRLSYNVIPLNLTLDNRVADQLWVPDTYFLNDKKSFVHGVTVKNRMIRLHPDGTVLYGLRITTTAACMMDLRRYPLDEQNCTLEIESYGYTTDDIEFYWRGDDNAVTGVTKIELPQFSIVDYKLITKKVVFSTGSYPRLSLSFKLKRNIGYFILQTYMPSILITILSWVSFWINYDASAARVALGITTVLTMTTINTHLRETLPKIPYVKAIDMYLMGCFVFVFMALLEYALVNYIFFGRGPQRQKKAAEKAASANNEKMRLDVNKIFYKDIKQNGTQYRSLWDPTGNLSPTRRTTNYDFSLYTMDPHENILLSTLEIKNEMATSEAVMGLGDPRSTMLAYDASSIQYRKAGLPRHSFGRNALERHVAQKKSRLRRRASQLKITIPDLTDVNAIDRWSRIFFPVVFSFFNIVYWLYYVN
T1 sequence (P18507 40-475 partner): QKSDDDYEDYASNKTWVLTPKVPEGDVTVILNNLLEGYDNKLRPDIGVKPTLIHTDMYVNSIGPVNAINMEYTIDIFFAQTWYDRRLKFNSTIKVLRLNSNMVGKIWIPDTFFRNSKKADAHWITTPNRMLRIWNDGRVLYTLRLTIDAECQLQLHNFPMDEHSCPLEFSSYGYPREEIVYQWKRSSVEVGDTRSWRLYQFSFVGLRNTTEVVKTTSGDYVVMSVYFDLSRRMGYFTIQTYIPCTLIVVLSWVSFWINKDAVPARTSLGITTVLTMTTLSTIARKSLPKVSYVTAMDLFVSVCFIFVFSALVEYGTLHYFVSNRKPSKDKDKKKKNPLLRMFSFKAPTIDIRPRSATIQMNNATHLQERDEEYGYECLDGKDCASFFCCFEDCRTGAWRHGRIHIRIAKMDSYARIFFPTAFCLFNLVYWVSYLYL

| Compound | IC50 [1] [nM] | Emax at 10 µM [2] [%] | Emax at 10 µM ([2]; in cremophor) [%] |
| --- | --- | --- | --- |
| C[C@@]1(O)CC[C@H]2[C@H](CC[C@@H]3[C@@H]2CC[C@]2(C)[C@@H](C(=O)Cn4cncn4)CC[C@@H]32)C1 [SA-1] | 100 to 500 | 100 to 500 | – |
| Cc1cn(CC(=O)[C@H]2CC[C@H]3[C@@H]4CC[C@@H]5C[C@](C)(O)CC[C@@H]5[C@H]4CC[C@]23C)nn1 [SA-5] | – | > 500 | – |
| C[C@@]1(O)CC[C@H]2[C@H](CC[C@@H]3[C@@H]2CC[C@]2(C)[C@@H](C(=O)Cn4nnc(C(F)(F)F)n4)CC[C@@H]32)C1 [SA-8] | – | 100 to 500 | – |
| C[C@@]1(O)CC[C@H]2[C@H](CC[C@@H]3[C@@H]2CC[C@]2(C)[C@@H](C(=O)Cn4cc(C#N)nn4)CC[C@@H]32)C1 [SA-20] | – | – | 100 to 500 |
| C[C@]12CC[C@H]3[C@@H](CC[C@H]4C[C@@](O)(CF)CC[C@@H]43)[C@@H]1CC[C@@H]2C(=O)Cn1ccnn1 [SD-1] | > 500 | – | – |
| Cc1nnnn1CC(=O)[C@H]1CC[C@H]2[C@@H]3CC[C@H]4C[C@@](O)(CF)CC[C@@H]4[C@H]3CC[C@]12C [SD-2] | – | 100 to 500 | – |
| Cc1nnn(CC(=O)[C@H]2CC[C@H]3[C@@H]4CC[C@H]5C[C@@](O)(CF)CC[C@@H]5[C@H]4CC[C@]23C)n1 [SD-3] | – | 100 to 500 | – |
| C[C@]12CC[C@H]3[C@@H](CC[C@H]4C[C@@](O)(CF)CC[C@@H]43)[C@@H]1CC[C@@H]2C(=O)Cn1cnnn1 [SD-4] | > 500 | 100 to 500 | – |
| CC[C@@]1(O)CC[C@H]2[C@H](CC[C@@H]3[C@@H]2CC[C@]2(C)[C@@H](C(=O)Cn4cnnn4)CC[C@@H]32)C1 [SE-1] | – | 100 to 500 | – |
| CC[C@@]1(O)CC[C@H]2[C@H](CC[C@@H]3[C@@H]2CC[C@]2(C)[C@@H](C(=O)Cn4ncnn4)CC[C@@H]32)C1 [SE-2] | – | > 500 | – |
| CC[C@@]1(O)CC[C@H]2[C@H](CC[C@@H]3[C@@H]2CC[C@]2(C)[C@@H](C(=O)Cn4ccnn4)CC[C@@H]32)C1 [SE-3] | 100 to 500 | 100 to 500 | – |
| CC[C@@]1(O)CC[C@H]2[C@H](CC[C@@H]3[C@@H]2CC[C@]2(C)[C@@H](C(=O)Cn4nnnc4C)CC[C@@H]32)C1 [SE-5] | > 500 | – | – |
| CC[C@@]1(O)CC[C@H]2[C@H](CC[C@@H]3[C@@H]2CC[C@]2(C)[C@@H](C(=O)Cn4nnc(C)n4)CC[C@@H]32)C1 [SE-6] | > 500 | 10 to 100 | – |
| C[C@]12CC[C@H]3[C@@H](CC[C@@H]4C[C@@](O)(CF)CC[C@@H]43)[C@@H]1CC[C@@H]2C(=O)Cn1cnnn1 [SF-1] | 100 to 500 | 100 to 500 | – |
| C[C@]12CC[C@H]3[C@@H](CC[C@@H]4C[C@@](O)(CF)CC[C@@H]43)[C@@H]1CC[C@@H]2C(=O)Cn1ccnn1 [SF-4] | 100 to 500 | 100 to 500 | – |
| Cc1nnnn1CC(=O)[C@H]1CC[C@H]2[C@@H]3CC[C@@H]4C[C@@](O)(C(F)F)CC[C@@H]4[C@H]3CC[C@]12C [SG-3] | – | 100 to 500 | – |
| Cc1nnn(CC(=O)[C@H]2CC[C@H]3[C@@H]4CC[C@@H]5C[C@@](O)(C(F)F)CC[C@@H]5[C@H]4CC[C@]23C)n1 [SG-4] | – | 100 to 500 | – |
| C[C@@]1(O)CC[C@@H]2[C@H]3CC[C@]4(C)[C@@H](C(=O)Cn5ccnn5)CC[C@H]4[C@@H]3C[C@@H](F)[C@@H]2C1 [SH-1] | > 500 | – | – |
| C[C@@]1(O)CC[C@@H]2[C@H]3CC[C@]4(C)[C@@H](C(=O)Cn5nccn5)CC[C@H]4[C@@H]3C[C@@H](F)[C@@H]2C1 [SH-2] | > 500 | 100 to 500 | – |
| CO[C@@H]1C[C@@H]2[C@H](CC[C@]3(C)[C@@H](C(=O)Cn4ccnn4)CC[C@@H]23)[C@H]2CC[C@@](C)(O)C[C@H]21 [SL-1] | > 500 | 10 to 100 | – |
| CO[C@@H]1C[C@@H]2[C@H](CC[C@]3(C)[C@@H](C(=O)Cn4nccn4)CC[C@@H]23)[C@H]2CC[C@@](C)(O)C[C@H]21 [SL-2] | > 500 | 10 to 100 | – |
| COC[C@@]1(O)CC[C@H]2[C@H](CC[C@@H]3[C@@H]2CC[C@]2(C)[C@@H](C(=O)Cn4cnnn4)CC[C@@H]32)C1 [SM-1] | 100 to 500 | 100 to 500 | – |
| COC[C@@]1(O)CC[C@H]2[C@H](CC[C@@H]3[C@@H]2CC[C@]2(C)[C@@H](C(=O)Cn4nnnc4C)CC[C@@H]32)C1 [SM-3] | – | > 500 | – |
| COC[C@@]1(O)CC[C@H]2[C@H](CC[C@@H]3[C@@H]2CC[C@]2(C)[C@@H](C(=O)Cn4nnc(C)n4)CC[C@@H]32)C1 [SM-4] | – | > 500 | – |

| Compound | IC50 [1] [nM] | Emax at 10 µM [2] [%] | Emax at 10 µM ([2]; in cremophor) [%] |
| --- | --- | --- | --- |
| COC[C@@]1(O)CC[C@H]2[C@H](CC[C@@H]3[C@@H]2CC[C@]2(C)[C@@H](C(=O)Cn4ccnn4)CC[C@@H]32)C1 [SM-5] | 100 to 500 | > 500 | – |
| C[C@@H]1C[C@H]2[C@@H](CC[C@@H]3[C@@H]2CC[C@]2(C)[C@@H](C(=O)Cn4ccnn4)CC[C@@H]32)C[C@]1(C)O [SN-1] | 50 to 100 | 100 to 500 | – |
| CCOC[C@@]1(O)CC[C@H]2[C@H](CC[C@@H]3[C@@H]2CC[C@]2(C)[C@@H](C(=O)Cn4nnnc4C)CC[C@@H]32)C1 [SO-1] | – | 100 to 500 | – |
| CCOC[C@@]1(O)CC[C@H]2[C@H](CC[C@@H]3[C@@H]2CC[C@]2(C)[C@@H](C(=O)Cn4nnc(C)n4)CC[C@@H]32)C1 [SO-2] | > 500 | – | – |
| CC[C@@]1(O)CC[C@H]2[C@@H](CC[C@@H]3[C@@H]2CC[C@]2(C)[C@@H](C(=O)Cn4ccnn4)CC[C@@H]32)C1 [SP-1] | > 500 | – | – |
| CC[C@@]1(O)CC[C@H]2[C@@H](CC[C@@H]3[C@@H]2CC[C@]2(C)[C@@H](C(=O)Cn4nccn4)CC[C@@H]32)C1 [SP-2] | 100 to 500 | 100 to 500 | – |
| CC[C@@]1(O)CC[C@H]2[C@@H](CC[C@@H]3[C@@H]2CC[C@]2(C)[C@@H](C(=O)Cn4ncnn4)CC[C@@H]32)C1 [SP-3] | – | 100 to 500 | – |
| CC[C@@]1(O)CC[C@H]2[C@@H](CC[C@@H]3[C@@H]2CC[C@]2(C)[C@@H](C(=O)Cn4nnnc4C)CC[C@@H]32)C1 [SP-4] | > 500 | 10 to 100 | – |
| CC[C@@]1(O)CC[C@H]2[C@@H](CC[C@@H]3[C@@H]2CC[C@]2(C)[C@@H](C(=O)Cn4nnc(C)n4)CC[C@@H]32)C1 [SP-5] | – | 100 to 500 | – |
| CCOC[C@@]1(O)CC[C@H]2[C@@H](CC[C@@H]3[C@@H]2CC[C@]2(C)[C@@H](C(=O)Cn4ccnn4)CC[C@@H]32)C1 [SQ-1] | > 500 | – | – |
| CCOC[C@@]1(O)CC[C@H]2[C@@H](CC[C@@H]3[C@@H]2CC[C@]2(C)[C@@H](C(=O)Cn4nccn4)CC[C@@H]32)C1 [SQ-2] | – | 100 to 500 | – |
| CCOC[C@@]1(O)CC[C@H]2[C@@H](CC[C@@H]3[C@@H]2CC[C@]2(C)[C@@H](C(=O)Cn4ncnn4)CC[C@@H]32)C1 [SQ-3] | – | > 500 | – |
| CCOC[C@@]1(O)CC[C@H]2[C@@H](CC[C@@H]3[C@@H]2CC[C@]2(C)[C@@H](C(=O)Cn4cnnn4)CC[C@@H]32)C1 [SQ-4] | – | 100 to 500 | – |
| CCOC[C@@]1(O)CC[C@H]2[C@@H](CC[C@@H]3[C@@H]2CC[C@]2(C)[C@@H](C(=O)Cn4nnnc4C)CC[C@@H]32)C1 [SQ-5] | > 500 | – | – |
| CCOC[C@@]1(O)CC[C@H]2[C@@H](CC[C@@H]3[C@@H]2CC[C@]2(C)[C@@H](C(=O)Cn4nnc(C)n4)CC[C@@H]32)C1 [SQ-6] | – | 100 to 500 | – |
| C[C@]12CC[C@H]3[C@@H](CC[C@H]4C[C@@](O)(C(F)F)CC[C@@H]43)[C@@H]1CC[C@@H]2C(=O)Cn1ccnn1 [SS-1] | 100 to 500 | – | – |
| CO[C@H]1C[C@H]2[C@@H](CC[C@@H]3[C@@H]2CC[C@]2(C)[C@@H](C(=O)Cn4ccnn4)CC[C@@H]32)C[C@]1(C)O [SU-1] | 100 to 500 | 100 to 500 | – |
| Cc1cnn(CC(=O)[C@H]2CC[C@H]3[C@@H]4C[C@@H](F)[C@H]5C[C@](C)(O)CC[C@@H]5[C@H]4CC[C@]23C)n1 [SV-7] | – | 100 to 500 | – |
| Cc1cn(CC(=O)[C@H]2CC[C@H]3[C@@H]4C[C@@H](F)[C@H]5C[C@](C)(O)CC[C@@H]5[C@H]4CC[C@]23C)nn1 [SV-8] | – | > 500 | – |
| Cc1cnnn1CC(=O)[C@H]1CC[C@H]2[C@@H]3C[C@@H](F)[C@H]4C[C@](C)(O)CC[C@@H]4[C@H]3CC[C@]12C [SV-9] | – | 100 to 500 | – |
| CO[C@@H]1C[C@@H]2[C@H](CC[C@]3(C)[C@@H](C(=O)Cn4ccnn4)CC[C@@H]23)[C@H]2CC[C@@](C)(O)C[C@@H]21 [SW-1] | > 500 | 100 to 500 | – |
| CO[C@@H]1C[C@@H]2[C@H](CC[C@]3(C)[C@@H](C(=O)Cn4nccn4)CC[C@@H]23)[C@H]2CC[C@@](C)(O)C[C@@H]21 [SW-2] | > 500 | – | – |
| CCO[C@H]1C[C@H]2[C@@H](CC[C@@H]3[C@@H]2CC[C@]2(C)[C@@H](C(=O)Cn4ccnn4)CC[C@@H]32)C[C@]1(C)O [SY-1] | 100 to 500 | 100 to 500 | – |
